Patent US9695155B2, “Herbicidal substituted pyrimidinyloxy benzene compounds” (E. I. DU PONT DE NEMOURS AND COMPANY, priority 2013, dated 2017)

Assays:
fall panicum = assay: Test E postemergence; format: in vivo, Panicum dichotomiflorum
In short: (§1)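 Response was scored visually on a 0-100 scale (100 = complete control) versus controls after 14 to 21 days in the greenhouse. Test chemicals, formulated with surfactant in a non-phytotoxic solvent mixture, had been applied preemergence to seeds in silt loam soil or postemergence to 1- to 4-leaf plants in potting medium.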

dayflower = assay: Test E postemergence; format: in vivo, Commelina virginica
In short: as §1

hairy beggarticks = assay: Test E postemergence; format: in vivo, Bidens pilosa
In short: as §1

waterhemp = assay: Test E postemergence; format: in vivo, Amaranthus rudis
In short: as §1

[1] = tested on: waterhemp_RES2 (ALS & HPPD resistant common waterhemp); assay: Test E postemergence; format: in vivo, Amaranthus rudis
In short: as §1

[2] = tested on: waterhemp_RES1 (ALS & Triazine resistant common waterhemp); assay: Test E postemergence; format: in vivo, Amaranthus rudis
In short: as §1

Italian ryegrass = assay: Test E postemergence; format: in vivo, Lolium multiflorum
In short: as §1

sedge, umbrella = assay: Test C flooded paddy test; format: in vivo, Cyperus difformis; conditions: Flood, scale 0 to 100 (0 no effect, 100 complete control), 13 to 15 days
In short: (§2)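 Flooded 3 cm over soil; compound into paddy water; depth kept constant. Greenhouse 13–15 d.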

barnyardgrass = assay: Test C flooded paddy test; format: in vivo, Echinochloa crus-galli; conditions: Flood, scale 0 to 100 (0 no effect, 100 complete control), 13 to 15 days
In short: as §2

[3] = Postemergence, 31 g ai/ha, scale 0 to 100
[4] = Postemergence, 62 g ai/ha, scale 0 to 100
[5] = Postemergence, 125 g ai/ha, scale 0 to 100
[6] = postemergence, 8 g ai/ha, scale 0 to 100, 0 no effect, 100 complete control
[7] = postemergence, 16 g ai/ha, scale 0 to 100, 0 no effect, 100 complete control

## Clc1cnc(Oc2ccccc2-n2cc(Br)nn2)nc1 [Compound 223]
Fall panicum; [3]
  Plant response rating, Panicum, Fall: 0
Fall panicum; [4]
  Plant response rating, Panicum, Fall: 0
Fall panicum; [5]
  Plant response rating, Panicum, Fall: 0
Fall panicum; [6]
  Plant response rating, Panicum, Fall: 0
Fall panicum; [7]
  Plant response rating, Panicum, Fall: 0
dayflower; [3]
  Plant response rating, Dayflower, VA: 25
dayflower; [4]
  Plant response rating, Dayflower, VA: 55
dayflower; [5]
  Plant response rating, Dayflower, VA: 65
dayflower; [6]
  Plant response rating, Dayflower, VA: 0
dayflower; [7]
  Plant response rating, Dayflower, VA: 0
Hairy beggarticks; [3]
  Plant response rating, Beggarticks: 60
Hairy beggarticks; [4]
  Plant response rating, Beggarticks: 75
Hairy beggarticks; [5]
  Plant response rating, Beggarticks: 85
Hairy beggarticks; [6]
  Plant response rating, Beggarticks: 40
Hairy beggarticks; [7]
  Plant response rating, Beggarticks: 50
waterhemp; [3]
  Plant response rating, Waterhemp: 70
waterhemp; [4]
  Plant response rating, Waterhemp: 85
waterhemp; [5]
  Plant response rating, Waterhemp: 98
waterhemp; [6]
  Plant response rating, Waterhemp: 60
waterhemp; [7]
  Plant response rating, Waterhemp: 50
[1]; [3]
  Plant response rating, Waterhemp_RES2: 80
[1]; [4]
  Plant response rating, Waterhemp_RES2: 80
[1]; [5]
  Plant response rating, Waterhemp_RES2: 95
[1]; [7]
  Plant response rating, Waterhemp_RES2: 75
[2]; [3]
  Plant response rating, Waterhemp_RES1: 80
[2]; [4]
  Plant response rating, Waterhemp_RES1: 70
[2]; [5]
  Plant response rating, Waterhemp_RES1: 95
[2]; [6]
  Plant response rating, Waterhemp_RES1: 30
[2]; [7]
  Plant response rating, Waterhemp_RES1: 60
Italian ryegrass; [3]
  Plant response rating, Ryegrass, Italian: 0
Italian ryegrass; [4]
  Plant response rating, Ryegrass, Italian: 0
Italian ryegrass; [5]
  Plant response rating, Ryegrass, Italian: 0
Italian ryegrass; [6]
  Plant response rating, Ryegrass, Italian: 0
Italian ryegrass; [7]
  Plant response rating, Ryegrass, Italian: 0

## FC(F)(F)c1cnn(-c2c(Br)cccc2Oc2ncc(Cl)cn2)c1 [Compound 191]
sedge, umbrella; 31 g ai/ha
  Plant response rating, Sedge, Umbrella: 40
sedge, umbrella; 62 g ai/ha
  Plant response rating, Sedge, Umbrella: 60
sedge, umbrella; 125 g ai/ha
  Plant response rating, Sedge, Umbrella: 85
sedge, umbrella; 250 g ai/ha
  Plant response rating, Sedge, Umbrella: 98
barnyardgrass; 31 g ai/ha
  Plant response rating, Barnyardgrass: 0
barnyardgrass; 62 g ai/ha
  Plant response rating, Barnyardgrass: 0
barnyardgrass; 125 g ai/ha
  Plant response rating, Barnyardgrass: 0
barnyardgrass; 250 g ai/ha
  Plant response rating, Barnyardgrass: 20
Fall panicum; [3]
  Plant response rating, Panicum, Fall: 5
Fall panicum; [4]
  Plant response rating, Panicum, Fall: 10
Fall panicum; [5]
  Plant response rating, Panicum, Fall: 20
Fall panicum; [6]
  Plant response rating, Panicum, Fall: 0
Fall panicum; [7]
  Plant response rating, Panicum, Fall: 0
dayflower; [3]
  Plant response rating, Dayflower, VA: 5
dayflower; [4]
  Plant response rating, Dayflower, VA: 10
dayflower; [5]
  Plant response rating, Dayflower, VA: 10
dayflower; [6]
  Plant response rating, Dayflower, VA: 0
dayflower; [7]
  Plant response rating, Dayflower, VA: 0
Hairy beggarticks; [3]
  Plant response rating, Beggarticks: 40
Hairy beggarticks; [4]
  Plant response rating, Beggarticks: 50
Hairy beggarticks; [5]
  Plant response rating, Beggarticks: 50
Hairy beggarticks; [6]
  Plant response rating, Beggarticks: 10
Hairy beggarticks; [7]
  Plant response rating, Beggarticks: 20
waterhemp; [3]
  Plant response rating, Waterhemp: 90
waterhemp; [4]
  Plant response rating, Waterhemp: 90
waterhemp; [5]
  Plant response rating, Waterhemp: 95
waterhemp; [6]
  Plant response rating, Waterhemp: 60
waterhemp; [7]
  Plant response rating, Waterhemp: 70
[1]; [3]
  Plant response rating, Waterhemp_RES2: 95
[1]; [4]
  Plant response rating, Waterhemp_RES2: 95
[1]; [5]
  Plant response rating, Waterhemp_RES2: 100
[1]; [7]
  Plant response rating, Waterhemp_RES2: 90
[2]; [3]
  Plant response rating, Waterhemp_RES1: 80
[2]; [4]
  Plant response rating, Waterhemp_RES1: 90
[2]; [5]
  Plant response rating, Waterhemp_RES1: 95
[2]; [6]
  Plant response rating, Waterhemp_RES1: 50
[2]; [7]
  Plant response rating, Waterhemp_RES1: 70
Italian ryegrass; [3]
  Plant response rating, Ryegrass, Italian: 0
Italian ryegrass; [4]
  Plant response rating, Ryegrass, Italian: 0
Italian ryegrass; [5]
  Plant response rating, Ryegrass, Italian: 0
Italian ryegrass; [6]
  Plant response rating, Ryegrass, Italian: 0
Italian ryegrass; [7]
  Plant response rating, Ryegrass, Italian: 0
